# Laboratory results as given in ChEMBL document CHEMBL5365518, “Synthesis and Validation of the First Cell-Impermeable Hsp90α-Selective Inhibitors” (ACS Med Chem Lett, 2023).
# Active and inactive are the calls of the source. The calls are words filed in the database; no cut-off is given here.
# Columns and labels:
# OVCAR-8 [1] = test: Induction of heat shock response in human OVCAR-8 cells assessed as increase in HSP90 level at 1 to 100 uM incubated for 24 hrs by Western blot analysis; type: functional, cell-based; conditions: dose 1-100 µM
# [2] = biological target: Heat shock protein HSP 90-alpha (Homo sapiens, UniProt P07900); test: Binding affinity HSP90alpha (unknown origin) incubated for 24 hrs by fluorescence polarization assay
# [3] = Effective permeability of compound in PBS buffer at pH 7.4 incubated for 5 hrs by PAMPA assay; type: ADME; conditions: read-out: Peff
# [4] = biological target: T1, Heat shock protein 75 kDa, mitochondrial (Homo sapiens, UniProt Q12931); test: Binding affinity to Trap1 (unknown origin) incubated for 24 hrs by fluorescence polarization assay
# T1 sequence (Q12931 whole entry): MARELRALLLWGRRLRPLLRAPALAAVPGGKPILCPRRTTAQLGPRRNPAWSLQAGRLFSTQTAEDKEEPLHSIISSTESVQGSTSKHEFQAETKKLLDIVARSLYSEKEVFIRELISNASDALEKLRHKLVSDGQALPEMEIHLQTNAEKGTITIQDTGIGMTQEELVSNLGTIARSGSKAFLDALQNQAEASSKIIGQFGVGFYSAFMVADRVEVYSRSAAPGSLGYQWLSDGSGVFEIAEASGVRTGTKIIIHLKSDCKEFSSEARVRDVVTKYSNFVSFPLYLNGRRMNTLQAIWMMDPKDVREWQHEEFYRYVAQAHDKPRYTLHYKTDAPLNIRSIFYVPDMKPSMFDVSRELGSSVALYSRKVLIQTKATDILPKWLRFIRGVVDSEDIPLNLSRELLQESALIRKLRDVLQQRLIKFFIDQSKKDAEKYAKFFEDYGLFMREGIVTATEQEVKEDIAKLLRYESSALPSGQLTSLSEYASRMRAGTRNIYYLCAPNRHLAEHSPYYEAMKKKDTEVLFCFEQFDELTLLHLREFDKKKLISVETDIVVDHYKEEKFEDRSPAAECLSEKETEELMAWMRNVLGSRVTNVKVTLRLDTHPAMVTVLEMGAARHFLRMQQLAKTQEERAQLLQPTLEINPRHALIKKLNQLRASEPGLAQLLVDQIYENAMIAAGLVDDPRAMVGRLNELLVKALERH
# Endoplasmin = Endoplasmin (Homo sapiens, UniProt P14625); test: Binding affinity to Grp94 (unknown origin) incubated for 24 hrs by fluorescence polarization assay
# Sequence of Endoplasmin (P14625 whole entry): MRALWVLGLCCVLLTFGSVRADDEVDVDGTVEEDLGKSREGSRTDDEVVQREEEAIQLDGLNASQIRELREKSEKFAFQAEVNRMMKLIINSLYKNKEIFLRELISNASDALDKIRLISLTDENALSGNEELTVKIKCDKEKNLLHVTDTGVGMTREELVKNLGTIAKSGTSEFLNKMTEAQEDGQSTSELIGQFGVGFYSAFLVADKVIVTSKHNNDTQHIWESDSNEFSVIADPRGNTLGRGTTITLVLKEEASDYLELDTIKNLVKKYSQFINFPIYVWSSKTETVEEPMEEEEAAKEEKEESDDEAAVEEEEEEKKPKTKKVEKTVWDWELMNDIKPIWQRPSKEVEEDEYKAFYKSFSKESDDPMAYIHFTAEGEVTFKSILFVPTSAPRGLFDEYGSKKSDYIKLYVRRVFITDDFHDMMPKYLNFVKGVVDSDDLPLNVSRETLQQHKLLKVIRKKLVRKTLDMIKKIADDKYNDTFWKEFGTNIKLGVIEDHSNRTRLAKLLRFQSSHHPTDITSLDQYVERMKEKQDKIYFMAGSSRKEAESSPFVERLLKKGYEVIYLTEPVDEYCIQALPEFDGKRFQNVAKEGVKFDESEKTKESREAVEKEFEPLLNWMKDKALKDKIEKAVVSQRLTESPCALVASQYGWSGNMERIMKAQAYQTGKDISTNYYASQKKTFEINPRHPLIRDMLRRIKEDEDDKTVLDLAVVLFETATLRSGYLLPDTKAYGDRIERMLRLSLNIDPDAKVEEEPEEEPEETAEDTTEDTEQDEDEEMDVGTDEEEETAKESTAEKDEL
# [5] = biological target: Heat shock protein HSP 90-beta (Homo sapiens, UniProt P08238); test: Binding affinity HSP90beta (unknown origin) incubated for 24 hrs by fluorescence polarization assay
# Sequence of Heat shock protein HSP 90-beta (P08238 whole entry): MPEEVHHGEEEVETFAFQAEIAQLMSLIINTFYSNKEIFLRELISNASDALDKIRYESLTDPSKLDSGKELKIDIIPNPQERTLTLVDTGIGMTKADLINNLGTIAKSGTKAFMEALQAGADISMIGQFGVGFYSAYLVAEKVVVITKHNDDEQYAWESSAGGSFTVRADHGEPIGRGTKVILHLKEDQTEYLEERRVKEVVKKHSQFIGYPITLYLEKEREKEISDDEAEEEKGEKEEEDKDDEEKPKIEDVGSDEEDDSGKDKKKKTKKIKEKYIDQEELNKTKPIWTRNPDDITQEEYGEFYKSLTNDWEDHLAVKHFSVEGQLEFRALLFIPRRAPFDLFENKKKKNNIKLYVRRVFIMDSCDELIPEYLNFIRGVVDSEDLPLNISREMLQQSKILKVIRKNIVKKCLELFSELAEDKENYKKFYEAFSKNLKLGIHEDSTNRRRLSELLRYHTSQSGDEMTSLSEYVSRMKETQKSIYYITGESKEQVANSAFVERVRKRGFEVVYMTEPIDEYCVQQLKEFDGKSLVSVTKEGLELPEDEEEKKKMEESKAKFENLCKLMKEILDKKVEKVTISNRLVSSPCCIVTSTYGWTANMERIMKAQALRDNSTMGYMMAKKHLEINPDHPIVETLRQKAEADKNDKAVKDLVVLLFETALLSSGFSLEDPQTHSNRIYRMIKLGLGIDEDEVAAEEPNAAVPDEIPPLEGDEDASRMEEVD
# [6] = Antiproliferative activity against human MCF-10A cells assessed as inhibition of cell growth incubated for 72 hrs by MTS assay; type: toxicity, cell-based
# OVCAR-8 [7] = test: Antiproliferative activity against human OVCAR-8 cells assessed as inhibition of cell growth incubated for 72 hrs by MTS assay; type: functional, cell-based; conditions: OVCAR-8, 72 h
# [8] = biological target: RAC-alpha serine/threonine-protein kinase (Homo sapiens) (UniProt P31749); test: Induction of AKT degradation in human OVCAR-8 cells incubated for 24 hrs by Western blot analysis; type: cell-based; conditions: dose 1-100 µM
# Sequence of RAC-alpha serine/threonine-protein kinase (Homo sapiens) (P31749 whole entry): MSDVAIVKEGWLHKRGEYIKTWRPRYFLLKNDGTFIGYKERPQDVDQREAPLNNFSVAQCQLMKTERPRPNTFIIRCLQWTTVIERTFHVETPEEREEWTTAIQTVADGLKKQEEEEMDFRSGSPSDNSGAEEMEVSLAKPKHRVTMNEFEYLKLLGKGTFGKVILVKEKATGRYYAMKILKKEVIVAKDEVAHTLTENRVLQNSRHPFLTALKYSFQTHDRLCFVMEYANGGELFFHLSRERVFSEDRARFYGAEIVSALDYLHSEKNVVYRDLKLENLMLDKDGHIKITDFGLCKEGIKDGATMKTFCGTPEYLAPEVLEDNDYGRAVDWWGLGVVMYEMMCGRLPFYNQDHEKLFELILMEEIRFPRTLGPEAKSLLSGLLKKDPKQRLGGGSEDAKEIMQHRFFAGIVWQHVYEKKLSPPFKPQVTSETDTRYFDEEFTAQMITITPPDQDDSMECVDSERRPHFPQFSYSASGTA
# [9] = biological target: RAC-alpha serine/threonine-protein kinase (Homo sapiens) (UniProt P31749); test: Induction of AKT degradation in human OVCAR-8 cells at 1 to 100 uM incubated for 24 hrs by Western blot analysis; type: cell-based; conditions: dose 1-100 µM
# Heat shock protein HSP90 = Heat shock protein HSP90 (Homo sapiens, UniProt P07900+P08238); test: Disruption of HSP90-mediated hERG channel maturation transfected in HEK293 cells assessed as appearance of fully glycosylated form at 100 uM incubated for 24 hrs by Western blot analysis; type: toxicity, cell-based; conditions: hek293, 24 h
# OVCAR-8 [10] = test: Effect on TGFbetaR level in human OVCAR-8 cells at 1 to 100 uM incubated for 24 hrs by Western blot analysis; type: functional, cell-based; conditions: dose 1-100 µM
# OVCAR-8 [11] = test: Effect on TLR2 level in human OVCAR-8 cells at 1 to 100 uM incubated for 24 hrs by Western blot analysis; type: functional, cell-based; conditions: dose 1-100 µM
# [12] = biological target: RAC-alpha serine/threonine-protein kinase (Homo sapiens) (UniProt P31749); test: Inhibition of AKT phosphorylation in human OVCAR-8 cells assessed as reduction in pAKT level incubated for 24 hrs by Western blot analysis; type: cell-based; conditions: dose 1-100 µM
# OVCAR-8 [13] = test: Effect on HER2 level in human OVCAR-8 cells at 1 to 100 uM incubated for 24 hrs by Western blot analysis; type: functional, cell-based; conditions: dose 1-100 µM
# [14] = Selectivity index, ratio of IC50 for binding affinity to HSP90beta (unknown origin) to IC50 for binding affinity to HSP90alpha (unknown origin)
# OVCAR-8 [15] = test: Induction of heat shock response in human OVCAR-8 cells assessed as increase in HSP90 level at 100 nM incubated for 24 hrs by Western blot analysis; type: functional, cell-based
IC50 [2] [µM],IC50 [5] [µM],Ratio IC50 [14],SMILES,Papp at 5 h [3] [×10⁻⁶ cm/s],other results
7.36,> 100,> 13,Cc1ccc(Sc2cc(C(=O)N3Cc4ccc(OCCCC[N+](C)(C)C)cc4C3)ccc2O)cc1C,,
> 100,> 100,,Cc1ccc(Sc2cc(C(=O)N3Cc4ccc(OCC[N+](C)(C)[O-])cc4C3)ccc2O)cc1C,,
90.3,> 100,,Cc1ccc(Sc2cc(C(=O)N3Cc4ccc(OCCCC[N+](C)(C)[O-])cc4C3)ccc2O)cc1C,,
0.96,> 100,> 104,Cc1ccc(Sc2cc(C(=O)N3Cc4ccc(OCC[N+](C)(C)Cc5ccccc5)cc4C3)ccc2O)cc1C,,
,,,Cn1c(=O)c2c(ncn2C)n(C)c1=O [CAFFEINE],17.3,
,,,CCNC(=O)c1noc(-c2cc(C(C)C)c(O)cc2O)c1-c1ccc(CN2CCOCC2)cc1,,Activity (OVCAR-8 [15]): Active
0.79,> 100,> 126,Cc1ccc(Sc2cc(C(=O)N3Cc4ccc(OCCCCN(C)C)cc4C3)ccc2O)cc1C,,
7.94,> 100,> 12,CC[N+](C)(C)CCCCOc1ccc2c(c1)CN(C(=O)c1ccc(O)c(Sc3ccc(C)c(C)c3)c1)C2,,
0.36,8.39,> 12,CC[N+](C)(C)CCOc1ccc2c(c1)CN(C(=O)c1ccc(O)c(Sc3ccc(C)c(C)c3)c1)C2,,
43.1,> 100,> 2,Cc1ccc(Sc2cc(C(=O)N3Cc4ccc(OCCC[N+](C)(C)[O-])cc4C3)ccc2O)cc1C,,

SMILES,IC50 [2] [µM],IC50 [5] [µM],Ratio IC50 [14],Papp at 5 h [3] [×10⁻⁶ cm/s],other results
Cc1ccc(Sc2cc(C(=O)N3Cc4ccc(OCCCN(C)C)cc4C3)ccc2O)cc1C,0.51,> 100,,2.99,Activity (OVCAR-8 [1]): Active; IC50 [4]: > 100 µM; IC50 (Endoplasmin): > 100 µM; IC50 at 72 h [6]: 11.7 µM; IC50 (OVCAR-8 [7]): 12.7 µM; Activity [8]: Dose-Dependent Effect
Cc1ccc(Sc2cc(C(=O)N3Cc4ccc(OCCN(C)C)cc4C3)ccc2O)cc1C,0.85,96.1,,,IC50 [4]: > 100 µM; IC50 (Endoplasmin): > 100 µM; IC50 at 72 h [6]: 11.5 µM; IC50 (OVCAR-8 [7]): 13.5 µM
Cc1ccc(Sc2cc(C(=O)N3Cc4ccc(OCCC[N+](C)(C)C)cc4C3)ccc2O)cc1C.O=C([O-])C(F)(F)F,0.34,> 100,,0.644,Activity (OVCAR-8 [1]): inactive; Activity [9]: inactive; Activity (Heat shock protein HSP90): Active; Activity (OVCAR-8 [10]): Active; Activity (OVCAR-8 [11]): Active; IC50 [4]: > 100 µM; IC50 (Endoplasmin): > 100 µM; inhibition [12]: Dose-Dependent Effect; Activity (OVCAR-8 [13]): Active; IC50 at 72 h [6]: > 100 µM; IC50 (OVCAR-8 [7]): > 100 µM
Cc1ccc(Sc2cc(C(=O)N3Cc4ccc(OCC[N+](C)(C)C)cc4C3)ccc2O)cc1C.O=C([O-])C(F)(F)F,0.65,> 100,,0.775,IC50 [4]: > 100 µM; IC50 (Endoplasmin): > 100 µM; IC50 at 72 h [6]: > 100 µM; IC50 (OVCAR-8 [7]): > 100 µM
Cc1ccc(Sc2cc(C(=O)N3Cc4ccc(OCCC[N+](C)(C)Cc5ccccc5)cc4C3)ccc2O)cc1C.O=C([O-])C(F)(F)F,0.96,> 100,> 104,3.74,
CC[N+](C)(C)CCCOc1ccc2c(c1)CN(C(=O)c1ccc(O)c(Sc3ccc(C)c(C)c3)c1)C2.O=C([O-])C(F)(F)F,> 100,> 100,,1.05,
